Experimental findings from patent US11912682B2, “Isoindolinone compounds” (Monte Rosa Therapeutics, Inc., priority 2021, dated 2024) are described below.

Read-outs that look alike come from different tables or passages of the source.

The target in experiment [1] is Full length wild-type cereblon CRBN (Homo sapiens (Human), UniProt Q96SW2). Nature of the experiment: fluorescence polarization (FP) assay, cereblon binding. In short, it runs like this:
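Full-length wild-type CRBN (80.0 nM as dispensed) preincubated 30 min at room temperature with compound in HEPES pH 8.0, NaCl, TCEP, 0.05% Tween 20.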

The target of experiment [2] is GSPT1 (Homo sapiens (Human), UniProt P15170+Q96SW2). Nature of the experiment: immunofluorescence assay for GSPT1 degradation in CAL-51 cells (Example 4). The experiment is classed as cell-based. The procedure, abridged:
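CAL-51 cells on fibronectin-coated plates were treated 6 h with serial dilutions (30 μM to 0.1 nM), then fixed and immunostained for GSPT1 with DAPI and phalloidin counterstains. Per-cell mean GSPT1 intensity from high-content imaging, normalized to controls; DC50 by non-linear regression.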

The mark [3] stands for this setting: 6 hours, read-out: Activity for GSPT1 degradation, Code (DC50).
[4] abbreviates: GSPT1 degradation, read-out: DC50 value.

Chain of Full length wild-type cereblon CRBN (Q96SW2 whole entry): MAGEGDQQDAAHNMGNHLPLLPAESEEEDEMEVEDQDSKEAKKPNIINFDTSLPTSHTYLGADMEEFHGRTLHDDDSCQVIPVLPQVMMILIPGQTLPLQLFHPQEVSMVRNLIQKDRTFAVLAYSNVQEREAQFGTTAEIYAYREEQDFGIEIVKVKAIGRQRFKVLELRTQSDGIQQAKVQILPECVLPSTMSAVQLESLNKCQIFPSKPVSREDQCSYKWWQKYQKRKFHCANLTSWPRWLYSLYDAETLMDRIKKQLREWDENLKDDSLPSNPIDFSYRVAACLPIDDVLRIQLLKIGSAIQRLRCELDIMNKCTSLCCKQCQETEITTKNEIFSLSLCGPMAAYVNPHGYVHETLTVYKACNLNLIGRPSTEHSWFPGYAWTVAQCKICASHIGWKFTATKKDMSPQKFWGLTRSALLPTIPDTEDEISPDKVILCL
Chain of GSPT1 (P15170 whole entry): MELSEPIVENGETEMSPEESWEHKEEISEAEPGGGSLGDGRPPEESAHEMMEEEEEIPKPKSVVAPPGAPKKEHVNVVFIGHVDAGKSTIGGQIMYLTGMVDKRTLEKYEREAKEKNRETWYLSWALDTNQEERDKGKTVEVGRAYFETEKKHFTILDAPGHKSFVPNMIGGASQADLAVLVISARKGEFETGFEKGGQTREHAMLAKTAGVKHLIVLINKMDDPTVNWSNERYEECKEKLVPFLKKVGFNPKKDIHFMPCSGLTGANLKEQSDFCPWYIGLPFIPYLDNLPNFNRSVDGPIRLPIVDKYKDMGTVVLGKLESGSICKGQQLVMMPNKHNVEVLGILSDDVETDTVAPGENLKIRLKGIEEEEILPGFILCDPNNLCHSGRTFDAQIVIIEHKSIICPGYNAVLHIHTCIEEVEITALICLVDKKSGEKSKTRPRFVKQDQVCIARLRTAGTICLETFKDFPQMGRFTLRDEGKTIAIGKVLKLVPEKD
Chain of GSPT1 (Q96SW2 whole entry): as the sequence (Q96SW2 whole entry) above
Chain of GSPT1 (Q16531 2-1140 partner): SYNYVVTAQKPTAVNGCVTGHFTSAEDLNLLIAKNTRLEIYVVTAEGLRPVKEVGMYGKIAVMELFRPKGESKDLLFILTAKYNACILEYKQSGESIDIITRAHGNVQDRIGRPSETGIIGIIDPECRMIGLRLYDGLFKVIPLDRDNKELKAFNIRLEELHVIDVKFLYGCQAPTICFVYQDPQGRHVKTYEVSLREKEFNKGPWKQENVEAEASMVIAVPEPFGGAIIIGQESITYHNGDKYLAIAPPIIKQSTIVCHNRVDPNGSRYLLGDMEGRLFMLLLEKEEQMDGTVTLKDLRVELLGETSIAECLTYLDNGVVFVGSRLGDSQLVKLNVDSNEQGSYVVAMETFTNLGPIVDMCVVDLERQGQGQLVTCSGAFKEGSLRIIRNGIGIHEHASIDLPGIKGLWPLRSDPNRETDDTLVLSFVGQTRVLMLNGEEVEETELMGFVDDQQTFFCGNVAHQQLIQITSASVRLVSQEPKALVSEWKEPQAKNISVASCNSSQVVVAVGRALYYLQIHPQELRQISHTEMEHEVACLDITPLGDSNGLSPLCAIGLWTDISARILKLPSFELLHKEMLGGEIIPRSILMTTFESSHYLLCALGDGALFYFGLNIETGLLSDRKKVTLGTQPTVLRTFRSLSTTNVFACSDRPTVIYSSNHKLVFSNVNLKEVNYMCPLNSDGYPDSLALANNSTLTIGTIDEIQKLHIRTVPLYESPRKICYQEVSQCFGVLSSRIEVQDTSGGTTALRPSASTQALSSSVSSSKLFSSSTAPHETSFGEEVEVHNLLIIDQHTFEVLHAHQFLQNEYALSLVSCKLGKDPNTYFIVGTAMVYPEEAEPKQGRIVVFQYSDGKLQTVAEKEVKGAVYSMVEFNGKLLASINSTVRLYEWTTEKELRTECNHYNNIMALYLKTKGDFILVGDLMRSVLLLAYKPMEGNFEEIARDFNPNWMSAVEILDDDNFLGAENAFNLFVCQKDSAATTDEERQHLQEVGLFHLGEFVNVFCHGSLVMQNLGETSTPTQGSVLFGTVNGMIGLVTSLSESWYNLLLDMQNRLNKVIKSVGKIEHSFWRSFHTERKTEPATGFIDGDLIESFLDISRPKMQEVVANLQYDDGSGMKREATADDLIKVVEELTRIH

As for `Cc1ncc(NC(=O)OCc2ccc3c(c2)C(=O)N(C2CCC(=O)NC2=O)C3)cc1Cl` (centres unmarked) [Compound 6], in experiment [1] (read-out: IC50 value), the IC50 was below 1100 nM. For the same compound, the DC50 is below 30 nM in experiment [2] (setting [3]) and at most 30 nM in experiment [2] (setting [4]).

For `Cc1ccc(NC(=O)OCc2ccc3c(c2)C(=O)N(C2CCC(=O)NC2=O)C3)cc1Cl` (centres unmarked) [Compound 10], the DC50 in experiment [2] (setting [3]) is below 30 nM; in experiment [2] (setting [4]), at most 30 nM.

As to `O=C1CCC(N2Cc3ccc(COC(=O)Nc4ccc(N5CCCCC5)nc4)cc3C2=O)C(=O)N1` (centres unmarked) [Compound 15], in experiment [1] (read-out: IC50 value), the IC50 is below 1100 nM. For the same compound, the values for the DC50 in experiment [2] (setting [3]) and in experiment [2] (setting [4]) were below 30 nM and at most 30 nM, respectively.

With `O=C1CCC(N2Cc3ccc(COC(=O)Nc4ccc(-c5ccccc5)nc4)cc3C2=O)C(=O)N1` (centres unmarked) [Compound 42], in experiment [1] (read-out: rFP IC50), the half-maximal inhibitory concentration (IC50) was above 1700 nM. For the same compound, the DC50 was below 30 nM in experiment [2] (setting [3]) and at most 30 nM in experiment [2] (setting [4]).

`CC(C)(C)c1ccc(NC(=O)OCc2ccc3c(c2)C(=O)N(C2CCC(=O)NC2=O)C3)cn1` (centres unmarked) [Compound 43]: the IC50 in experiment [1] (read-out: rFP IC50) is above 1700 nM. The figures for the DC50 in experiment [2] (setting [3]) and in experiment [2] (setting [4]) were below 30 nM and at most 30 nM, respectively.

As a reminder, the IC50 is the point on the concentration scale where inhibition reaches its midpoint. The term DC50 denotes the concentration giving 50% degradation.
